Assay results reported in paper PMC8619046, “ABCB1 and ABCG2 Control Brain Accumulation and Intestinal Disposition of the Novel ROS1/TRK/ALK Inhibitor Repotrectinib, While OATP1A/1B, ABCG2, and CYP3A Limit Its Oral Availability” (Pharmaceutics, 2021).
Values joined by “and” are separate entries in the source; they are usually repeats but may differ in a detail not shown here. Identical values can stand only once. Like-named read-outs stand apart in the source and are kept apart here.

How the values were obtained:
human ABCB1 = biological target: T1, human ABCB1 (Homo sapiens, UniProt P08183); test: Transepithelial transport, MDCK-II cells transduced with hABCB1; assay type: in vitro ADME; conditions: MDCK-MDR1, pH 7.4, MDCK-II hABCB1, 5 µM, no inhibitor, read-out: efflux transport ratio r
T1 construct: expressed in transfected cells; host or cells: MDCK-II cells stably transduced with hABCB1 cDNA (made in the authors' institute)
Description: Polarized Madin-Darby Canine Kidney (MDCK-II) cells (ECACC 00062107) stably transduced with either human (h) ABCB1, hABCG2 or mouse (m) Abcg2 cDNA were generated in our institute between 1995–2005. The proper identity and functionality, such as highly characteristic growth and drug transporter properties, including inhibitor sensitivity, were regularly checked in these epithelial cells. Mycoplasma routinely tested negative in these cells. The passage number was 10–15 when used in the transport experiments.
Transepithelial transport experiments were performed as previously described with 12-well plates (Transwell 3414, Corning Inc., Kennebunk, ME, USA) containing microporous polycarbonate membrane filters (3.0 µm pore size, 12 mm diameter). […]
After pre-incubation with 5 µM zosuquidar (ABCB1 inhibitor) and/or 5 µM Ko143 (ABCG2/Abcg2 inhibitor) in both compartments (when appropriate) for 1 h, the transport phase was initiated (t = 0) by replacing the medium in apical and basolateral compartments with fresh DMEM with 10% FBS and the appropriate inhibitor(s), and repotrectinib at 5 µM in the donor compartment. […] The active transport ratio r, calculated by dividing the amount of apically directed drug transport by basolaterally directed drug translocation after 8 h, was used to assess active transport of repotrectinib.

[1] = 4-h oral plasma pharmacokinetics and tissue distribution, male wild-type and Oatp1a/1b−/− mice; assay type: in vivo; conditions: 10 mg/kg oral; for Tmax: Table S2, median (range); for Fold change Cliver / Fold change SIC (% of dose) / Fold change ratio (SIC (%)-to-plasma) / Fold change ratio (brain-to-plasma) / Fold change ratio (liver-to-plasma) / Fold change ratio (testis-to-plasma) / Fold increase Cbrain / Fold increase Ctestis / Fold increase AUC0-4h: vs wild-type; for Kp at 4 h / concentration at 4 h / Cmax / AUC(0-t): male, po; for AUC(0-t): read-out: AUC0-4h
Description: Mice with similar average ages (and body weights) were randomly allocated in experimental groups as far as possible. Mice were maintained in a temperature-controlled and specific pathogen-free environment with a 12-h light and 12-h dark cycle and they received a standard diet (Transbreed, SDS Diets, Technilab-BMI, Someren, The Netherlands) and acidified water ad libitum. […] Given the objective main readout (repotrectinib plasma and tissue concentrations as measured by LC-MS/MS), no blinding method was applied.
Repotrectinib was dissolved in dimethyl sulfoxide (DMSO) at a concentration of 50 mg/mL. This stock solution was first diluted 3-fold with ethanol/polysorbate 80 (1/1; v/v), followed by further dilution with a 10 mM hydrochloric acid solution, yielding a dosing solution of 1 mg/mL, freshly prepared on the day of experiment. Final concentrations of the solvents in the administration solution were: 2%, 2%, 2%, and 94% (all v/v) for DMSO, ethanol, polysorbate 80, and 10 mM hydrochloric acid solution, respectively.
To minimize variation in absorption upon oral administration, mice were fasted for 2–3 h before repotrectinib (10 mg/kg body weight) was administered by gavage into the stomach at 10 µL/g body weight, with a blunt-ended needle. Tail vein serial blood samples were collected at 0.125, 0.25, 0.5, 1, 2 and 4 h using heparinized capillary tubes (Sarstedt, Nümbrecht, Germany) for the 8-h experiments. For the 4- and 2-h experiments, blood samplings were performed from the tail vein with the same schedule, but terminated at 2 and 1 h, respectively. Eight, four, or two hours after oral administration, mice were deeply anesthetized with 2–3% isoflurane, followed by cardiac puncture to collect blood in Eppendorf tubes containing heparin as an anticoagulant. Brain, liver, spleen, kidney, lung, small intestine, and testis were rapidly collected after sacrificing the mice by cervical dislocation. The small intestinal contents (SIC) were separated from small intestinal tissue (SI), which was flushed and rinsed with cold saline to remove any residual feces. Brain, liver, spleen, kidney, lung, SI, SIC, and testis were homogenized with 1, 3, 1, 2, 1, 3, 2, and 1 mL of 2% BSA (w/v), respectively. Plasma fraction was isolated from blood by centrifugation at 9000× g for 6 min at 4 °C. All samples were stored at −30 °C until analysis.
A sensitive and specific liquid chromatography-tandem mass spectrometry method using protein precipitation pre-treatment was adopted to quantify the concentration of repotrectinib in DMEM medium, plasma samples and tissue homogenates.
A non-compartmental model using the PKSolver add-in program for Microsoft Excel was adopted to calculate the pharmacokinetic parameters of repotrectinib. Oral availability was assessed by the plasma area under the curve (AUC), calculated using repotrectinib plasma concentration-time curves with the linear trapezoidal rule without extrapolating the infinity. Statistical testing was performed in Graphpad Prism7 (Graphpad Software, La Jolla, CA, USA). All data are presented as geometric means ± SD. Heteroscedastic data were log-transformed before applying statistical analysis. When differences between two groups were compared, the two-sided unpaired Student’s t test was used. One-way analysis of variance (ANOVA) was applied when multiple groups were compared, and the Bonferroni post hoc correction was used to accommodate multiple testing. Differences were considered statistically significant when P < 0.05.

[2] = Table S2, male Oatp1a/1b−/− mice
[3] = FVB, mouse, plasma, 10 mg/kg, Table S2, male Oatp1a/1b−/− mice
[4] = FVB, mouse, plasma, 10 mg/kg, Table S2, male wild-type mice

T1 sequence (P08183 whole entry): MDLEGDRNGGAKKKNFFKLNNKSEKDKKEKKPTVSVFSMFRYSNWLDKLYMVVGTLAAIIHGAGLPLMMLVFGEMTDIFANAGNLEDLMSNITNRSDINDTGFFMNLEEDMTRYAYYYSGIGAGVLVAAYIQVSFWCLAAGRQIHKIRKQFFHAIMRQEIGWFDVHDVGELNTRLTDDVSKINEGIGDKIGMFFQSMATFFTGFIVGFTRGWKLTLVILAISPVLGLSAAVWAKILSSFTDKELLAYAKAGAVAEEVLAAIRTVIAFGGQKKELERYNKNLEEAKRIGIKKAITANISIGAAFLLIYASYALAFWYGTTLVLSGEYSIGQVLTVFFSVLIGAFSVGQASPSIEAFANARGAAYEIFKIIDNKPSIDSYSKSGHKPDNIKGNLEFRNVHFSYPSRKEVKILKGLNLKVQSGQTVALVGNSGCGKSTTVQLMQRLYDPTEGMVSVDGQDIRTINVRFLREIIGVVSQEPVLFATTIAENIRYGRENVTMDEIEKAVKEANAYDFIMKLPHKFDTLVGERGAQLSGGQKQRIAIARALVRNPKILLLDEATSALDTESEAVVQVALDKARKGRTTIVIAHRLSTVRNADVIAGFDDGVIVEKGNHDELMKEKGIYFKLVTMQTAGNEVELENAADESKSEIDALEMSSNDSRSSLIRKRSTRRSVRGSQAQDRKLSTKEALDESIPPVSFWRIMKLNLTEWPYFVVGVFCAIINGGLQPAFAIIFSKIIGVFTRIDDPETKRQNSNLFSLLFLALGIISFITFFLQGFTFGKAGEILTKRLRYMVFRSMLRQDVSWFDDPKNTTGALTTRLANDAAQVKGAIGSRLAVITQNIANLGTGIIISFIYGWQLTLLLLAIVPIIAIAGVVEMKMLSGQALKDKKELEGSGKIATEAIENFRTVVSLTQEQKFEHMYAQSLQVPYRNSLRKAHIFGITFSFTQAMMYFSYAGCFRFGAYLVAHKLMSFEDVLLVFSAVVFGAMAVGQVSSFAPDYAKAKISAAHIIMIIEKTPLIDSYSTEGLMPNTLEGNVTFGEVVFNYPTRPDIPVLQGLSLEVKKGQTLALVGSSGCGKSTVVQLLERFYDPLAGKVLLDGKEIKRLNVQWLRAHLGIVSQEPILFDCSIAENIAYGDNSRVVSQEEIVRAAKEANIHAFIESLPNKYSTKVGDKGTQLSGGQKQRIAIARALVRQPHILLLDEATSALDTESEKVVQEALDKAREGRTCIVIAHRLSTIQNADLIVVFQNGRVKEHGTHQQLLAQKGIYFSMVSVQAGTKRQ

Question: Which results are given for `C[C@H]1CNC(=O)c2cnn3ccc(nc23)N[C@H](C)c2cc(F)ccc2O1` [repotrectinib]?
Answer: efflux ratio at 8 h, 5 µM (human ABCB1): 13.5; Tmax ([1]; FVB, mouse, plasma, male wild-type mice, read-out: Tmax): 30 min; SIC (% of dose) [1, 2]: 8.52 ± 3.80 % of dose; SIC (%)-to-plasma ratio [1, 2]: 5.81 ± 2.09 *10-3; Fold change Cliver [1, 2]: 0.94; Fold change SIC (% of dose) [1, 2]: 1.53; Fold change ratio (SIC (%)-to-plasma) [1, 2]: 0.66; Fold change ratio (brain-to-plasma) [1, 2]: 1.20; Fold change ratio (liver-to-plasma) [1, 2]: 0.41; Fold change ratio (testis-to-plasma) [1, 2]: 0.79; Fold increase Cbrain [1, 2]: 2.71; Fold increase Ctestis [1, 2]: 1.70; Fold increase AUC0-4h ([1]; Table S2, male Oatp1a/1b−/− mice, 10 mg/kg): 2.02 and 2; SIC (% of dose) ([1]; Table S2, male wild-type mice): 5.56 ± 1.34 % of dose; SIC (%)-to-plasma ratio ([1]; Table S2, male wild-type mice): 8.79 ± 2.41 *10-3; Fold change Cliver ([1]; Table S2, male wild-type mice): 1.00; Fold change SIC (% of dose) ([1]; Table S2, male wild-type mice): 1.00; Fold change ratio (SIC (%)-to-plasma) ([1]; Table S2, male wild-type mice): 1.00; Fold change ratio (brain-to-plasma) ([1]; Table S2, male wild-type mice): 1.00; Fold change ratio (liver-to-plasma) ([1]; Table S2, male wild-type mice): 1.00; Fold change ratio (testis-to-plasma) ([1]; Table S2, male wild-type mice): 1.00; Fold increase AUC0-4h ([1]; Table S2, male wild-type mice): 1.00; Fold increase Cbrain ([1]; Table S2, male wild-type mice): 1.00; Fold increase Ctestis ([1]; Table S2, male wild-type mice): 1.00; Tmax ([1]; male Oatp1a/1b−/− mice): 0.5 (0.25-1) h; liver-to-plasma ratio, fold decrease ([1]; male Oatp1a/1b−/− mice vs wild-type): 2.5 fold; Kp at 4 h ([1]; FVB, mouse, brain, 10 mg/kg, Table S2, male Oatp1a/1b−/− mice, read-out: Brain-to-plasma ratio): 0.18 ± 0.04; concentration at 4 h ([1]; FVB, mouse, brain, 10 mg/kg, Table S2, male Oatp1a/1b−/− mice, read-out: Cbrain): 258 ± 31 ng/g; Kp at 4 h ([1]; FVB, mouse, brain, 10 mg/kg, Table S2, male wild-type mice, read-out: Brain-to-plasma ratio): 0.15 ± 0.03; concentration at 4 h ([1]; FVB, mouse, brain, 10 mg/kg, Table S2, male wild-type mice, read-out: Cbrain): 95.1 ± 23.5 ng/g; concentration at 4 h ([1]; FVB, mouse, liver, 10 mg/kg, Table S2, male Oatp1a/1b−/− mice, read-out: Cliver): 6240 ± 1400 ng/g; Kp at 4 h ([1]; FVB, mouse, liver, 10 mg/kg, Table S2, male Oatp1a/1b−/− mice, read-out: Liver-to-plasma ratio): 4.3 ± 0.5; concentration at 4 h ([1]; FVB, mouse, liver, 10 mg/kg, Table S2, male wild-type mice, read-out: Cliver): 6630 ± 1160 ng/g; Kp at 4 h ([1]; FVB, mouse, liver, 10 mg/kg, Table S2, male wild-type mice, read-out: Liver-to-plasma ratio): 10.5 ± 1.9; Cmax [1, 3]: 5070 ± 590 ng/mL; AUC(0-t) [1, 3]: 14100 ± 1530 ng·h/mL; Cmax [1, 4]: 3080 ± 1440 ng/mL; AUC(0-t) [1, 4]: 6990 ± 2460 ng·h/mL; concentration at 4 h ([1]; FVB, mouse, testis, 10 mg/kg, Table S2, male Oatp1a/1b−/− mice, read-out: Ctestis): 264 ± 37 ng/g; Kp at 4 h ([1]; FVB, mouse, testis, 10 mg/kg, Table S2, male Oatp1a/1b−/− mice, read-out: Testis-to-plasma ratio): 0.19 ± 0.05; concentration at 4 h ([1]; FVB, mouse, testis, 10 mg/kg, Table S2, male wild-type mice, read-out: Ctestis): 155 ± 55 ng/g; Kp at 4 h ([1]; FVB, mouse, testis, 10 mg/kg, Table S2, male wild-type mice, read-out: Testis-to-plasma ratio): 0.24 ± 0.07
